# According to patent US11957661B2, “JAK1 pathway inhibitors for the treatment of vitiligo” (Incyte Corporation, priority 2020, dated 2024):
# Columns and labels:
# [1] = biological target: human JAK1 (Homo sapiens, UniProt P23458); test: In vitro JAK kinase assay (HTRF, Example A); format: biochemical; settings: 1 mM ATP
# Description: (§1) The catalytic activity of JAK1, JAK2 or JAK3 was assayed by measuring the phosphorylation of a biotinylated peptide. The phosphorylated peptide was detected by homogenous time resolved fluorescence (HTRF). […] Reactions were carried out at room temperature for 1 hour and then stopped with 20 μL 45 mM EDTA, 300 nM SA-APC, 6 nM Eu-Py20 in assay buffer (Perkin Elmer, Boston, MA). Binding to the Europium labeled antibody took place for 40 minutes and HTRF signal was measured on a Fusion plate reader (Perkin Elmer, Boston, MA).
# [2] = biological target: human JAK2 (Homo sapiens (Human), UniProt O60674); test: In vitro JAK kinase assay (HTRF, Example A); format: biochemical; settings: JAK2/JAK1 IC50 ratio, 1 mM ATP
# human JAK2, sequence (O60674 828-1132): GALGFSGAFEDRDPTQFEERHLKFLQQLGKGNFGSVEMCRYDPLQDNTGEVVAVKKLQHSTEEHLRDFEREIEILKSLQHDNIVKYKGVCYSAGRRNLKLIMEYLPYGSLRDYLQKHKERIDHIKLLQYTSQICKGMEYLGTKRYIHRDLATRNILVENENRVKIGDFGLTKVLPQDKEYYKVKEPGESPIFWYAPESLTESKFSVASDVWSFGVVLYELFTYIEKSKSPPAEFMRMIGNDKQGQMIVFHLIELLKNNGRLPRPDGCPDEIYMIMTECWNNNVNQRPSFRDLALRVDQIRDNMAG
# Description: as §1
IC50 [1] [µM],JAK2/JAK1 [2],Structure (SMILES)
< 0.1,>10,"C[C@@H](O)c1nc2cnc3ccsc3c2n1[C@H]1CC[C@H](CC#N)OC1 [Compound 5, ((2R,5S)-5-{2-[(1R)-1-hydroxyethyl]-1H-imidazo[4,5-d]thieno[3,2-b]pyridin-1-yl}tetrahydro-2H-pyran-2-yl)acetonitrile]"
< 0.01,>10,"N#CCC(C1CCN(c2nc3cccnc3o2)C1)n1cc(-c2ncnc3[nH]ccc23)cn1 (centres unmarked) [Compound 7, 3-(1-[1,3]oxazolo[5,4-b]pyridin-2-ylpyrrolidin-3-yl)-3-[4-(7H-pyrrolo[2,3-d]pyrimidin-4-yl)-1H-pyrazol-1-yl]propanenitrile]"
< 0.01,>10,"N#CCC1(n2cc(-c3ncnc4[nH]ccc34)cn2)CN([C@H]2CC[C@@H](Oc3cc(CCO)nc(C(F)(F)F)n3)CC2)C1 [Compound 18, {1-(cis-4-{[6-(2-hydroxyethyl)-2-(trifluoromethyl)pyrimidin-4-yl]oxy}cyclohexyl)-3-[4-(7H-pyrrolo[2,3-d]pyrimidin-4-yl)-1H-pyrazol-1-yl]azetidin-3-yl}acetonitrile]"
< 0.01,>10,"CCNCc1cc(O[C@H]2CC[C@@H](N3CC(CC#N)(n4cc(-c5ncnc6[nH]ccc56)cn4)C3)CC2)nc(C(F)(F)F)c1 [Compound 19, {1-(cis-4-{[4-[(ethylamino)methyl]-6-(trifluoromethyl)pyridin-2-yl]oxy}cyclohexyl)-3-[4-(7H-pyrrolo[2,3-d]pyrimidin-4-yl)-1H-pyrazol-1-yl]azetidin-3-yl}acetonitrile]"
< 0.01,>10,"CC(C)(O)c1cc(O[C@H]2CC[C@@H](N3CC(CC#N)(n4cc(-c5ncnc6[nH]ccc56)cn4)C3)CC2)nc(C(F)(F)F)c1 [Compound 20, {1-(cis-4-{[4-(1-hydroxy-1-methylethyl)-6-(trifluoromethyl)pyridin-2-yl]oxy}cyclohexyl)-3-[4-(7H-pyrrolo[2,3-d]pyrimidin-4-yl)-1H-pyrazol-1-yl]azetidin-3-yl}acetonitrile]"
< 0.01,>10,"C[C@@H](CO)NCc1cc(OC2CCN([C@H]3C[C@](CC#N)(n4cc(-c5ncnc6[nH]ccc56)cn4)C3)CC2)nc(C(F)(F)F)c1 [Compound 23, {trans-3-(4-{[4-({[(1S)-2-hydroxy-1-methylethyl]amino}methyl)-6-(trifluoromethyl)pyridin-2-yl]oxy}piperidin-1-yl)-1-[4-(7H-pyrrolo[2,3-d]pyrimidin-4-yl)-1H-pyrazol-1-yl]cyclobutyl}acetonitrile]"
< 0.01,>10,"C[C@@H](O)CNCc1cc(OC2CCN([C@H]3C[C@](CC#N)(n4cc(-c5ncnc6[nH]ccc56)cn4)C3)CC2)nc(C(F)(F)F)c1 [Compound 24, {trans-3-(4-{[4-({[(2R)-2-hydroxypropyl]amino}meth-yl)-6-(trifluoromethyl)pyridin-2-yl]oxy}piperidin-1-yl)-1-[4-(7H-pyrrolo[2,3-d]pyrimidin-4-yl)-1H-pyrazol-1-yl]cyclobutyl}acetonitrile]"
< 0.01,>10,"C[C@H](O)CNCc1cc(OC2CCN([C@H]3C[C@](CC#N)(n4cc(-c5ncnc6[nH]ccc56)cn4)C3)CC2)nc(C(F)(F)F)c1 [Compound 25, {trans-3-(4-{[4-({[(2S)-2-hydroxypropyl]amino}meth-yl)-6-(trifluoromethyl)pyridin-2-yl]oxy}piperidin-1-yl)-1-[4-(7H-pyrrolo[2,3-d]pyrimidin-4-yl)-1H-pyrazol-1-yl]cyclobutyl}acetonitrile]"
< 0.01,>10,"N#CC[C@]1(n2cc(-c3ncnc4[nH]ccc34)cn2)C[C@H](N2CCC(Oc3cc(CCO)cc(C(F)(F)F)n3)CC2)C1 [Compound 26, {trans-3-(4-{[4-(2-hydroxyethyl)-6-(trifluoromethyl)pyridin-2-yl]oxy}piperidin-1-yl)-1-[4-(7H-pyrrolo[2,3-d]pyrimidin-4-yl)-1H-pyrazol-1-yl]cyclobutyl}acetonitrile]"

# The remaining lines, values behind:
Structure (SMILES),IC50 [1] [µM],JAK2/JAK1 [2]
"N#CCC(C1CCN(c2cccc(Cl)n2)C1)n1cc(-c2ncnc3[nH]ccc23)cn1 (single isomer, unassigned) [Compound 6, 3-[1-(6-chloropyridin-2-yl)pyrrolidin-3-yl]-3-[4-(7H-pyrrolo[2,3-d]pyrimidin-4-yl)-1H-pyrazol-1-yl]propanenitrile]",< 0.01,>10
"N#CCC1(n2cc(-c3ncnc4[nH]ccc34)cn2)CN(C2CCN(C(=O)Nc3ccc(F)cc3C(F)(F)F)CC2)C1 [Compound 2, 4-{3-(Cyanomethyl)-3-[4-(7H-pyrrolo[2,3-d]pyrimidin-4-yl)-1H-pyrazol-1-yl]azetidin-1-yl}-N-[4-fluoro-2-(trifluoromethyl)phenyl]pipe-ridine-1-carboxamide]",< 0.01,>10
"N#CCC1(n2cc(-c3ncnc4[nH]ccc34)cn2)CN(C2CCN(C(=O)c3ccnc(C(F)(F)F)n3)CC2)C1 [Compound 3, [3-[4-(7H-pyrrolo[2,3-d]pyrimidin-4-yl)-1H-pyrazol-1-yl]-1-(1-{[2-(trifluoromethyl)pyrimidin-4-yl]carbonyl}piperidin-4-yl)azetidin-3-yl]acetonitrile]",< 0.01,>10
"N#CCC1(n2cc(-c3ncnc4[nH]ccc34)cn2)CN(C2CCN(C(=O)c3ccnc(C(F)(F)F)c3F)CC2)C1 [Compound 4, {1-{1-[3-Fluoro-2-(trifluoromethyl)isonicotinoyl]piperidin-4-yl}-3-[4-(7H-pyrrolo[2,3-d]pyrimidin-4-yl)-1H-pyrazol-1-yl]azetidin-3-yl}acetonitrile]",< 0.01,>10
"N#CCC(CN1CCN(C(=O)c2ccc(C#N)cc2F)CC1)n1cc(-c2ncnc3[nH]ccc23)cn1 (centres unmarked) [Compound 8, 4-[(4-{3-cyano-2-[4-(7H-pyrrolo[2,3-d]pyrimidin-4-yl)-1H-pyrazol-1-yl]propyl}piperazin-1-yl)carbonyl]-3-fluorobenzonitrile]",< 0.01,>10
"N#CCC(CN1CCN(C(=O)c2ccc(C#N)cc2F)CC1)n1ccc(-c2ncnc3[nH]ccc23)c1 (centres unmarked) [Compound 9, 4-[(4-{3-cyano-2-[3-(7H-pyrrolo[2,3-d]pyrimidin-4-yl)-1H-pyrrol-1-yl]propyl}piperazin-1-yl)carbonyl]-3-fluorobenzonitrile]",< 0.01,>10
"N#CC[C@]1(n2cc(-c3ncnc4[nH]ccc34)cn2)C[C@H](N2CCN(C(=O)c3ccnc(C(F)(F)F)n3)CC2)C1 [Compound 10, [trans-1-[4-(7H-pyrrolo[2,3-d]pyrimidin-4-yl)-1H-pyrazol-1-yl]-3-(4-{[2-(trifluoromethyl)pyrimidin-4-yl]carbonyl}piperazin-1-yl)cyclobutyl]acetonitrile]",< 0.01,>10
"N#CC[C@]1(n2cc(-c3ncnc4[nH]ccc34)cn2)C[C@H](N2CCC(Oc3cc(CN4CC(O)C4)cc(C(F)(F)F)n3)CC2)C1 [Compound 11, {trans-3-(4-{[4-[(3-hydroxyazetidin-1-yl)methyl]-6-(trifluoromethyl)pyridin-2-yl]oxy}piperidin-1-yl)-1-[4-(7H-pyrrolo[2,3-d]pyrimidin-4-yl)-1H-pyrazol-1-yl]cyclobutyl}acetonitrile]",< 0.01,>10
"N#CC[C@]1(n2cc(-c3ncnc4[nH]ccc34)cn2)C[C@H](N2CCC(Oc3cc(CN4CCC[C@H]4CO)cc(C(F)(F)F)n3)CC2)C1 [Compound 12, {trans-3-(4-{[4-{[(2S)-2-(hydroxymethyl)pyrrolidin-1-yl]methyl}-6-(trifluoromethyl)pyridin-2-yl]oxy}piperidin-1-yl)-1-[4-(7H-pyrrolo[2,3-d]pyrimidin-4-yl)-1H-pyrazol-1-yl]cyclobutyl}acetonitrile]",< 0.01,>10
"N#CC[C@]1(n2cc(-c3ncnc4[nH]ccc34)cn2)C[C@H](N2CCC(Oc3cc(CN4CCC[C@@H]4CO)cc(C(F)(F)F)n3)CC2)C1 [Compound 13, {trans-3-(4-{[4-{[(2R)-2-(hydroxymethyl)pyrrolidin-1-yl]methyl}-6-(trifluoromethyl)pyridin-2-yl]oxy}piperidin-1-yl)-1-[4-(7H-pyrrolo[2,3-d]pyrimidin-4-yl)-1H-pyrazol-1-yl]cyclobutyl}acetonitrile]",< 0.01,>10
"C[C@H](NC(=O)c1cc(F)c(N2CC(CC#N)(n3cc(-c4ncnc5[nH]ccc45)cn3)C2)cc1F)C(F)(F)F [Compound 16, 4-{3-(cyanomethyl)-3-[4-(7H-pyrrolo[2,3-d]pyrimidin-4-yl)-1H-pyrazol-1-yl]azetidin-1-yl}-2,5-difluoro-N-[(1S)-2,2,2-trifluoro-1-methylethyl]benzamide]",< 0.01,>10
"N#CCC1(n2cc(-c3ncnc4[nH]ccc34)cn2)CN([C@H]2CC[C@@H](Oc3cc(CN4CC[C@@H](O)C4)cc(C(F)(F)F)n3)CC2)C1 [Compound 21, {1-(cis-4-{[4-{[(3R)-3-hydroxypyrrolidin-1-yl]methyl}-6-(trifluoromethyl)pyridin-2-yl]oxy}cyclohexyl)-3-[4-(7H-pyrrolo[2,3-d]pyrimidin-4-yl)-1H-pyrazol-1-yl]azetidin-3-yl}acetonitrile]",< 0.01,>10
"N#CCC1(n2cc(-c3ncnc4[nH]ccc34)cn2)CN([C@H]2CC[C@@H](Oc3cc(CN4CC[C@H](O)C4)cc(C(F)(F)F)n3)CC2)C1 [Compound 22, {1-(cis-4-{[4-{[(3S)-3-hydroxypyrrolidin-1-yl]methyl}-6-(trifluoromethyl)pyridin-2-yl]oxy}cyclohexyl)-3-[4-(7H-pyrrolo[2,3-d]pyrimidin-4-yl)-1H-pyrazol-1-yl]azetidin-3-yl}acetonitrile]",< 0.01,>10
